The record followed here is PMC3835334 (ACS medicinal chemistry letters, 2013).

Molecules are shown by their SMILES. Some results are limits rather than exact numbers.

The term IC50 denotes the midpoint of a concentration-inhibition curve.

In the first data set the test system is JMAR, MDA-MB-231, SKMEL-28, DRO81-1 and MRC-5 cells. Briefly: cells. The following applies: read-out: IC50 values against melanoma and carcinoma cells.
On to `CC(=O)OCC1=C(C)C[C@H]([C@@H](C)[C@H]2CC[C@H]3[C@@H]4C[C@@H](O)[C@@]5(Cl)CC=CC(=O)[C@]5(COC(C)=O)[C@H]4CC[C@]23C)OC1=O` [Compound 19], for which the half-maximal inhibitory concentration (IC50) is 800 to 2160 nM.

The same data set, now with this note: read-out: IC50 values over all cell lines tested.
In the case of `CCC(=O)OCC1=C(C)C[C@H]([C@@H](C)[C@H]2CC[C@H]3[C@@H]4C[C@H]5O[C@]56[C@@H](OC(=O)CC)C=CC(=O)[C@]6(COC(=O)CC)[C@H]4CC[C@]23C)OC1=O` [Compound 9, withalongolide A 4,19,27-propionate], the IC50 fell in the range of 130 to 1000 nM.
In the case of `CC1=C(COC(=O)c2ccc(Cl)cc2)C(=O)O[C@@H]([C@@H](C)[C@H]2CC[C@H]3[C@@H]4C[C@H]5O[C@]56[C@@H](OC(=O)c5ccc(Cl)cc5)C=CC(=O)[C@]6(CO)[C@H]4CC[C@]23C)C1` [Compound 12], the IC50 is more than 10000 nM.
Same read-out and setting: the result for `CC1=C(COC(=O)c2ccc(Cl)cc2)C(=O)O[C@@H]([C@@H](C)[C@H]2CC[C@H]3[C@@H]4C[C@H]5O[C@]56[C@@H](OC(=O)c5ccc(Cl)cc5)C=CC(=O)[C@]6(COC(=O)c5ccc(Cl)cc5)[C@H]4CC[C@]23C)C1` [Compound 13] reads more than 10000 nM.
As to `CC(=O)OC[C@]12C(=O)C=C[C@H](OC(=O)c3ccc(Cl)cc3)[C@]13O[C@@H]3C[C@H]1[C@@H]3CC[C@H]([C@H](C)[C@H]4CC(C)=C(COC(=O)c5ccc(Cl)cc5)C(=O)O4)[C@@]3(C)CC[C@@H]12` [Compound 16], the IC50 was more than 10000 nM.
With `CC(=O)OCC1=C(C)C[C@H]([C@@H](C)[C@H]2CC[C@H]3[C@@H]4C[C@@H](O)C5=CC=CC(=O)[C@]5(COC(C)=O)[C@H]4CC[C@]23C)OC1=O` [Compound 18], the IC50 is more than 10000 nM.
On the same count and under the same terms, the value for `CC(=O)OCC1=C(C)C[C@H]([C@@H](C)[C@H]2CC[C@H]3[C@@H]4C[C@@H](OC(C)=O)C5=CC=CC(=O)[C@]5(COC(C)=O)[C@H]4CC[C@]23C)OC1=O` [Compound 20] was more than 10000 nM; that for `CC(=O)OCC1=C(C)C[C@H]([C@@H](C)[C@H]2CC[C@H]3[C@@H]4C[C@H]5O[C@]56[C@@H]5C=CC(=O)[C@]6(COC(=O)CC/C=C/CCC(=O)O5)[C@H]4CC[C@]23C)OC1=O` [Compound 24] was 205 to 965 nM.

A further data set has the same test system.
Experiment: not given
Conditions: not given
With `CC1=C(CO)C(=O)O[C@@H]([C@@H](C)[C@H]2CC[C@H]3[C@@H]4C[C@H]5O[C@]56[C@@H](OC(=O)c5ccc(Cl)cc5)C=CC(=O)[C@]6(CO)[C@H]4CC[C@]23C)C1` [Compound 10], the “Cytotoxic activity in words” value was “active”.
Still for that read-out and setting: the value for `CC1=C(COC(=O)c2ccc(Cl)cc2)C(=O)O[C@@H]([C@@H](C)[C@H]2CC[C@H]3[C@@H]4C[C@H]5O[C@]56[C@@H](O)C=CC(=O)[C@]6(COC(=O)c5ccc(Cl)cc5)[C@H]4CC[C@]23C)C1` [Compound 11] was “active”.
Consider `CC(=O)OCC1=C(C)C[C@H]([C@@H](C)[C@H]2CC[C@H]3[C@@H]4C[C@H]5O[C@]56[C@@H](OC(=O)N(C)C)C=CC(=O)[C@]6(COC(C)=O)[C@H]4CC[C@]23C)OC1=O` [Compound 15], for which the “Increased cytotoxicity compared to 1” value was 3–5 times.
Regarding `CC(=O)OCC1=C(C)C[C@H]([C@@H](C)[C@H]2CC[C@H]3[C@@H]4C[C@H]5O[C@]56CC=CC(=O)[C@]6(COC(C)=O)[C@H]4CC[C@]23C)OC1=O` [Compound 17, Jaborosalactone V diacetate], the “Cytotoxic activity in words” value is on record as “equipotent to withaferin A”.
In the case of `CC(=O)OCC1=C(C)C[C@H]([C@@H](C)[C@H]2CC[C@H]3[C@@H]4C[C@@H](O)C5=CC=CC(=O)[C@]5(COC(C)=O)[C@H]4CC[C@]23C)OC1=O` [Compound 18], the “Cytotoxic activity in words” value is listed as “abolished”.
Same read-out and setting: the value for `CC1=C(CO)C(=O)O[C@@H]([C@@H](C)[C@H]2CC[C@H]3[C@@H]4C[C@H]5O[C@]56[C@@H](O)C=C(I)C(=O)[C@]6(CO)[C@H]4CC[C@]23C)C1` [Compound 21] was “very weak activity”.
